Assay results taken from paper PMC3540847 (Journal of Lipid Research, 2012).
Where a name gives a salt, the structure may show the parent alone.

Experiments:
skAsbt = target: T1, skAsbt (Leucoraja erinaceus, UniProt I4CJQ7); test: competition of 3H-TCA uptake, transfected COS-7 cells; assay type: cell-based; settings: 10 μM 3H-TCA, Na+ medium, 10 min
T1 sequence (I4CJQ7 1-393): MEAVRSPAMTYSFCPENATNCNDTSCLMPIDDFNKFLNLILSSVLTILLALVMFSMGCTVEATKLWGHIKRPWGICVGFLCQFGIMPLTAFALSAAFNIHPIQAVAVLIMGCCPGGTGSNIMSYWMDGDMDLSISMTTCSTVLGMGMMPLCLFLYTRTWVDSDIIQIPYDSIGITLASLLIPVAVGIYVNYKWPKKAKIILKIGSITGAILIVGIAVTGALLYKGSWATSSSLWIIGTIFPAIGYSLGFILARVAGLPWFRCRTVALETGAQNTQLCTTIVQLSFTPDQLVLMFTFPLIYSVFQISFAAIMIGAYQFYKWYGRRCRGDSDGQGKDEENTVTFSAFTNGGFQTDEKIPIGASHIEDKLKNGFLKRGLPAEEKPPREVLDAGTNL

hASBT = target: T2, hASBT (Homo sapiens, UniProt Q12908); test: as above; assay type: cell-based; settings: 10 μM 3H-TCA, Na+ medium, 10 min
T2 sequence (Q12908 1-348): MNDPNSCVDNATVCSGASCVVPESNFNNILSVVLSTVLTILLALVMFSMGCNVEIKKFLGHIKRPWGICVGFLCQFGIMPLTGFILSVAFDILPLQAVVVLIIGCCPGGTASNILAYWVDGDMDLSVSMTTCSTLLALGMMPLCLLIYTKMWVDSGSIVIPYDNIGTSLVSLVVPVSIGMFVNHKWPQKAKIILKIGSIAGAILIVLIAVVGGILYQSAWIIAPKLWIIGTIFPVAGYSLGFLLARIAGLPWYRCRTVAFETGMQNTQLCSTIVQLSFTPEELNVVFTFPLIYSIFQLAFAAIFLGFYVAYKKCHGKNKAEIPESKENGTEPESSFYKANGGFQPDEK

| SMILES | inhibition of uptake at 100 μM (skAsbt) | inhibition of uptake at 100 μM (hASBT) |
| --- | --- | --- |
| C[C@H](CCCOS(=O)(=O)O)[C@H]1CC[C@H]2[C@@H]3[C@H](O)C[C@H]4C[C@H](O)CC[C@]4(C)[C@H]3C[C@H](O)[C@]12C [5α-PZS] | significantly reduced ^3H-TCA transport activity in both skAsbt and hASBT | significantly reduced ^3H-TCA transport activity in both skAsbt and hASBT |
| C[C@H](CCC(=O)NCCS(=O)(=O)O)[C@H]1CC[C@H]2[C@@H]3CC[C@@H]4C[C@H](OS(=O)(=O)O)CC[C@]4(C)[C@H]3CC[C@]12C [taurolithocholic acid-3-sulfate] | significantly reduced ^3H-TCA transport activity in both skAsbt and hASBT |  |
| O=C1OC(c2ccc(O)c(S(=O)(=O)O)c2)(c2ccc(O)c(S(=O)(=O)O)c2)c2c(Br)c(Br)c(Br)c(Br)c21 [bromosulfophtalein] | bromosulfophtalein significantly inhibited both transporters | bromosulfophtalein significantly inhibited both transporters |
| C[C@H](CCC(=O)NCCS(=O)(=O)O)[C@H]1CC[C@H]2[C@@H]3[C@H](O)C[C@@H]4C[C@H](O)CC[C@]4(C)[C@H]3CC[C@]12C [TCDCA] | significantly reduced ^3H-TCA transport activity in both skAsbt and hASBT | significantly reduced ^3H-TCA transport activity in both skAsbt and hASBT |
| C[C@H](CCC(=O)NCCS(=O)(=O)O)[C@H]1CC[C@H]2[C@@H]3CC[C@@H]4C[C@H](O)CC[C@]4(C)[C@H]3CC[C@]12C [taurolithocholic acid] | significantly reduced ^3H-TCA transport activity in both skAsbt and hASBT | significantly reduced ^3H-TCA transport activity in both skAsbt and hASBT |
| C[C@H](CCC(=O)NCC(=O)O)[C@H]1CC[C@H]2[C@@H]3[C@H](O)C[C@@H]4C[C@H](O)CC[C@]4(C)[C@H]3CC[C@]12C [GCDCA] | significantly reduced ^3H-TCA transport activity in both skAsbt and hASBT | significantly reduced ^3H-TCA transport activity in both skAsbt and hASBT |
| C[C@H](CCCC(CO)COS(=O)(=O)O)[C@H]1CC[C@H]2[C@@H]3[C@H](O)C[C@H]4C[C@H](O)CC[C@]4(C)[C@H]3C[C@H](O)[C@]12C (stereo partly drawn) [5α-cyprinol sulfate] | significantly reduced ^3H-TCA transport activity in both skAsbt and hASBT | significantly reduced ^3H-TCA transport activity in both skAsbt and hASBT |
| C[C@H](CCC(=O)NCCS(=O)(=O)O)[C@H]1CC[C@H]2[C@@H]3[C@@H](O)C[C@@H]4C[C@H](O)CC[C@]4(C)[C@H]3CC[C@]12C [TUDCA] |  | TUDCA effectively reduced ^3H-TCA transport activity in hASBT but not in skAsbt |
